Measured values as given in ChEMBL document CHEMBL1909046, “DrugMatrix in vitro pharmacology data”.

Tests used:
[1] = DRUGMATRIX: Phorbol Ester radioligand binding (ligand: [3H] PDBu); format: cell membranes, Mus musculus, ICR, Brain, Membrane; settings: Not Active = under 50% inhibition at 10 µM
[2] = molecular target: Mitogen-activated protein kinase 14 (Homo sapiens, UniProt Q16539); set-up: species or system Escherichia coli;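 note: inhibition of p38alpha enzyme activity in a biochemical kinase assay, with myelin basic protein serving as substrate; in other assays of this panel Not Active means under 50% inhibition at 10 µM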
Sequence of Mitogen-activated protein kinase 14 (Q16539 whole entry): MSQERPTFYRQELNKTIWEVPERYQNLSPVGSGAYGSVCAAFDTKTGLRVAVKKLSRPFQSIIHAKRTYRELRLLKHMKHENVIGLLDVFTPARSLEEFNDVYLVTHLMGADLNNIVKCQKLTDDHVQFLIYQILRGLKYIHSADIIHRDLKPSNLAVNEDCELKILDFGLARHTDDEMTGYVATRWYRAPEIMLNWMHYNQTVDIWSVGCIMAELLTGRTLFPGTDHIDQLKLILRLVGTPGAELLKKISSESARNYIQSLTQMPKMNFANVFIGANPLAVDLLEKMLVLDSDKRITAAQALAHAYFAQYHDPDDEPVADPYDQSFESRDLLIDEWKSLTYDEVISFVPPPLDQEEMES

[3] = DRUGMATRIX: ATPase, Na+/K+ enzyme inhibition (substrate: ATP); format: tissue-based, Sus scrofa, Heart; settings: Not Active = under 50% inhibition at 10 µM
[4] = molecular target: T1, Alpha-1D adrenergic receptor (Homo sapiens, UniProt P25100); format: cell membranes, HEK293, Membrane; note: in other assays of this panel Not Active means under 50% inhibition at 10 µM
T1 sequence (P25100 whole entry): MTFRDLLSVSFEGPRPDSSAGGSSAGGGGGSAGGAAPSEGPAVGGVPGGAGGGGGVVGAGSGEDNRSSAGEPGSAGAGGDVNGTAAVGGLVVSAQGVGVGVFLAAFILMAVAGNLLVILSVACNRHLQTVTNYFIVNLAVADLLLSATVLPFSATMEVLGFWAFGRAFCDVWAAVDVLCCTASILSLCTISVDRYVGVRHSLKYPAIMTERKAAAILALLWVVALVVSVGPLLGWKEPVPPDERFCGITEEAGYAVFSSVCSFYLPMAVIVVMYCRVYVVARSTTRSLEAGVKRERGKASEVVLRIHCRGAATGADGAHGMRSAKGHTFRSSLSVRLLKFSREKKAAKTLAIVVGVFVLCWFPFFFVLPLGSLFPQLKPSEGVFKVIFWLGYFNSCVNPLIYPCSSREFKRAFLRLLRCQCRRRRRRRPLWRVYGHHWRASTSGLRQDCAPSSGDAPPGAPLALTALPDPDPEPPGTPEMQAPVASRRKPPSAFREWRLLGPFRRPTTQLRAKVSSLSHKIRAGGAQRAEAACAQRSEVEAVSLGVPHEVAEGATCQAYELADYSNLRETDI

[5] = DRUGMATRIX: beta-Lactamase enzyme inhibition (substrate: Nitrocefin); set-up: species or system Bacillus cereus; settings: Not Active = under 50% inhibition at 10 µM
[6] = molecular target: T2, Alpha-1B adrenergic receptor (Rattus norvegicus, UniProt P15823); assay: DRUGMATRIX: Alpha-1B adrenergic receptor radioligand binding (ligand: prazosin); format: cell membranes, Wistar, Liver, Membrane; settings: Not Active = under 50% inhibition at 10 µM
T2 sequence (P15823 whole entry): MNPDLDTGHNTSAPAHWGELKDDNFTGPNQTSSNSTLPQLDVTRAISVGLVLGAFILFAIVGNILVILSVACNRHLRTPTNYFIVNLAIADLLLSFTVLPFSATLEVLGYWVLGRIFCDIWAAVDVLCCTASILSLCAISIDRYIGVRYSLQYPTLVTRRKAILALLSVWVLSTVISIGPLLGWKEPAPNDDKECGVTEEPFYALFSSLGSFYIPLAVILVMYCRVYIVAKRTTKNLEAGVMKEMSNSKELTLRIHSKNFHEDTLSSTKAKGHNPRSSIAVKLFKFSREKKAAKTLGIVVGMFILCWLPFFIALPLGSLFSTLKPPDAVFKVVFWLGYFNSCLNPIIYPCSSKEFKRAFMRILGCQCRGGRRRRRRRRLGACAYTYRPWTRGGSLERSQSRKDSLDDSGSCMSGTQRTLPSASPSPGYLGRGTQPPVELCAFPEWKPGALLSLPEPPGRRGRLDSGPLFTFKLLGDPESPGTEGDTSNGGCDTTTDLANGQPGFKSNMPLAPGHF

[7] = molecular target: Vasopressin V1a receptor (Homo sapiens, UniProt P37288); format: cell membranes, Membrane; settings: hek293; note: in other assays of this panel Not Active means under 50% inhibition at 10 µM
Sequence of Vasopressin V1a receptor (P37288 whole entry): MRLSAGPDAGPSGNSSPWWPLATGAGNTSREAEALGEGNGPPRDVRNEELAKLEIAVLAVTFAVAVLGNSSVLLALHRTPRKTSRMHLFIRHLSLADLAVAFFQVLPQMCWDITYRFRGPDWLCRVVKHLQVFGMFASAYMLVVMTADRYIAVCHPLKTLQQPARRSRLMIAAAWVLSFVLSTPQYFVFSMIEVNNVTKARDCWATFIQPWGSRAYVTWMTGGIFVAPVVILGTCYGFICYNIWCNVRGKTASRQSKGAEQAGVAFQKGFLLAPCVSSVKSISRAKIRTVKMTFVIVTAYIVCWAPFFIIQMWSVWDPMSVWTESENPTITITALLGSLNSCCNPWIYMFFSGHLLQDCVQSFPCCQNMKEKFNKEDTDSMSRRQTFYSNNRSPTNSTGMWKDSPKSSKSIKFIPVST

SMILES | IC50 [1] | Ki [1] | IC50 [2] | IC50 [3] | Ki [3] | IC50 ([4]; hek293) | IC50 [5] | Ki [5] | IC50 [6] | IC50 [7] | IC50 ([4]; read-out: IC50) [µM] | Ki ([4]; read-out: Ki) [µM]
OC[C@H]1OC2C3[C@@H](CO)OC(O[C@H]4[C@H](O)[C@@H](O)[C@@H](O[C@H]5[C@H](O)[C@@H](O)[C@@H](O[C@H]6[C@H](O)[C@@H](O)[C@@H](O[C@H]7[C@H](O)[C@@H](O)[C@@H](O[C@H]8[C@H](O)[C@@H](O)[C@@H](O[C@H]9[C@H](O)[C@@H](O)C(OC1[C@H](O)[C@H]2O)O[C@@H]9CO)O[C@@H]8CO)O[C@@H]7CO)O[C@@H]6CO)O[C@@H]5CO)O[C@@H]4CO)[C@H](O)[C@H]3O | Not Active | Not Active | Not Active | Not Active | Not Active | Not Active | Not Active | Not Active | Not Active | Not Active | – | –
CC(C)Cc1ccc([C@H](C)C(=O)O)cc1 [DEXIBUPROFEN] | Not Active | Not Active | Not Active | Not Active | Not Active | Not Active | Not Active | Not Active | Not Active | Not Active | – | –
CC(N)Cc1c[nH]c2ccc(OCc3cccs3)cc12 (stereo unspecified) [BW-723C86] | Not Active | Not Active | Not Active | Not Active | Not Active | Not Active | Not Active | Not Active | Not Active | Not Active | – | –
CC(=O)[C@]1(O)Cc2c(O)c3c(c(O)c2[C@@H](O[C@H]2C[C@H](N)[C@H](O)[C@H](C)O2)C1)C(=O)c1ccccc1C3=O [IDARUBICIN] | Not Active | Not Active | Not Active | Not Active | Not Active | Not Active | Not Active | Not Active | Not Active | Not Active | – | –
NC(=O)NC(=O)Cc1ccccc1 [PHENACEMIDE] | Not Active | Not Active | Not Active | Not Active | Not Active | Not Active | Not Active | Not Active | Not Active | Not Active | – | –
Nc1ccc(C(=O)O)c(O)c1 [AMINOSALICYLIC ACID] | Not Active | Not Active | Not Active | Not Active | Not Active | Not Active | Not Active | Not Active | Not Active | Not Active | – | –
Nc1nc(N)c2nc(CNc3ccc(C(=O)N[C@@H](CCC(=O)O)C(=O)O)cc3)cnc2n1 [AMINOPTERIN] | Not Active | Not Active | Not Active | Not Active | Not Active | Not Active | Not Active | Not Active | Not Active | Not Active | – | –
c1ccc(Cn2ccnc2)cc1 | Not Active | Not Active | Not Active | Not Active | Not Active | Not Active | Not Active | Not Active | Not Active | Not Active | – | –
CC(C)(C#N)c1cc(Cn2cncn2)cc(C(C)(C)C#N)c1 [ANASTROZOLE] | Not Active | Not Active | Not Active | Not Active | Not Active | Not Active | Not Active | Not Active | Not Active | Not Active | – | –
COc1cc(/C=C/C(=O)O)ccc1O [FERULATE] | Not Active | Not Active | Not Active | Not Active | Not Active | Not Active | Not Active | Not Active | Not Active | Not Active | – | –
COc1cc([C@@H]2c3cc4c(cc3[C@H](O)[C@H]3COC(=O)[C@H]23)OCO4)cc(OC)c1OC [PODOFILOX] | Not Active | Not Active | Not Active | Not Active | Not Active | Not Active | Not Active | Not Active | Not Active | Not Active | – | –
C[N+](C)(C)CCOC(N)=O.[Cl-] [CARBACHOL] | Not Active | Not Active | Not Active | Not Active | Not Active | Not Active | Not Active | Not Active | Not Active | Not Active | – | –
CC1(COc2ccc(CC3SC(=O)NC3=O)cc2)CCCCC1 (stereo unspecified) [CIGLITAZONE] | Not Active | Not Active | Not Active | Not Active | Not Active | Not Active | Not Active | Not Active | Not Active | Not Active | – | –
Oc1ncnc2[nH]ncc12 [ALLOPURINOL] | Not Active | Not Active | Not Active | Not Active | Not Active | Not Active | Not Active | Not Active | Not Active | Not Active | – | –
CC(C)Cn1cnc2c(N)nc3ccccc3c21 [IMIQUIMOD] | Not Active | Not Active | Not Active | Not Active | Not Active | – | Not Active | Not Active | Not Active | Not Active | 2.62 | 1.29
NS(=O)(=O)c1cc(C(=O)O)c(NCc2ccco2)cc1Cl [FUROSEMIDE] | Not Active | Not Active | Not Active | Not Active | Not Active | Not Active | Not Active | Not Active | Not Active | Not Active | – | –
